Test results from US20100105773A1, “USE OF RESOLVINS AND DOCOSATRIENES AND ANALOGUES THEREOF FOR THE TREATMENT OF ANGIOGENESIS AND OCULAR NEOVASCULARIZATION” (THE CHILDREN'S MEDICAL CENTER CORPORATION, priority 2006, published 2010).
Entries after “also recorded” stand apart in the source; their conditions may differ.

Legend:
TNF-α = details: literature refs 14-16; cited from earlier work
[1] = tested on: oxygen-induced retinopathy (retinal vasculature); assay: O2-induced retinopathy: vaso-obliteration and neovascularization at P17; format: in vivo, mouse; details: for decrease in neovascularization (Tufts) compared to vehicle / decrease in vessel loss (VO) compared to vehicle control: 10 ng i.p. daily P6-P17, read at P17; for neovascularization at P17 compared to saline controls / protection from vaso-obliteration compared to saline-injected controls: 10 ng/day i.p. P6-P17
Method: (§1) O2-induced retinopathy (vessel degeneration, re-growth and pathological neovascularization). To induce vessel loss, postnatal day 7 (P7) mice with their nursing mother were exposed to 75% oxygen for times ranging from 24 hours to 5 days^1. To evaluate vaso-obliteration following 24 hours of oxygen exposure, P8 mice were anesthetized at with Avertin (Sigma) and perfused with 50 μl of 120 mg/ml FITC-dextran (2×10^6 molecular weight, FD2000S-5G, Sigma) in saline through the left ventricle^21. Eyes were enucleated and fixed in 4% paraformaldehyde for 2 h at 4° C. Retinas were isolated and whole-mounted with SlowFade Antifade reagent (S2828, Molecular Probes) onto polylysin-coated slides with the photoreceptor side up. Retinas were examined with a fluorescence microscope (Olympus, Tokyo), digitized images using a three-charge-coupled device color video camera (DX-950P, Sony), and processed with NORTHERN ECLIPSE software (Empix Imaging, Toronto). Retinal neovascularization was evaluated 5 days after oxygen exposure (P7-P12) at P17 when the neovascular response is greatest. P17 mice were given a lethal dose of Avertin (Sigma) and their eyes were enucleated and fixed in 4% paraformaldehyde for 2 h at 4° C. Retinas were isolated and stained overnight with fluoresceinated Griffonia Bandereiraea Simplicifolia Isolectin B4 (Alexa Fluor 488-121411 or Alexa Fluor 594-121413, Molecular Probes) in 1 mM CaCl2 in PBS. Following 2 hours of washes, retinas were whole-mounted with glycerol-gelatin (Sigma) onto polylysin-coated slides with the photoreceptor side up and imaged with a confocal microscope.
Quantification of vaso-obliteration and retinal neovascularization. Images of each of 4 quadrants of whole-mounted retina were taken at 5× magnification and imported into Adobe Photoshop. Retinal segments were merged to produce an image of the entire retina. Vaso-obliteration and neovascular tuft formation were quantified by comparing the number of pixels in the affected areas with the total number of pixels in the retina. Percentages of vaso-obliteration and neovascularization from mouse retinas were compared with values for retinas from age-matched control mice with identical oxygen conditions^17,22. Evaluation was done blind to the identity of the sample.
Resolvins and Neuroprotectins. C57B1/6 nursing mothers were fed a diet rich in either omega-6 or omega-3 polyunsaturated fatty acids from birth. To induce proliferative retinopathy in the pups, mice were exposed to 75% oxygen from P7 to P12. Retinas collected at P17 from omega-6 or omega-3 polyunsaturated fatty acid fed dams and exposed to high oxygen or room air conditions were analyzed to determine lipid mediator profiles. Polyunsaturated fatty acid derived products were extracted, identified, and quantified using a deuterium-labeled internal standard and MS-MS based mediator informatics^23. Results were obtained from retinas of six mice, each from a separate litter. Treatments with synthetic RvD1 (7S,8R,17S-trihydroxy-docosa-4Z,9E,11E,13Z,15E,19Z-hexaenoic acid), RvE1 (5S,12R,18R-trihydroxy-6Z,8E,10E,14Z,16E-eicosapentaenoic acid) and Neuroprotectin-D1 (10R,17S dihydroxy-docosa-4Z,7Z,11E,13E,15Z,19z-hexaneoic acid) were performed in 4 litters of mice. RvD1, RvE1 and NPD1 were prepared by organic synthesis according to published procedures matching physical and biological criteria^14,24,25. The pups were injected i.p. daily from P6-P17 (before, during, and after exposure to 75% oxygen) with 10 ng of either RvD1 (n=14), RvE1 (n=10) or NPD1 (n=14) or Saline/EtOH (n=14) vehicle. Following retinal staining and whole-mounting, neovascularization and vaso-obliteration were quantified at P17. Vaso-obliteration was also assessed at P8 (after 24 hours of 75% oxygen exposure) in pups given 10 ng of RvD1 (n=7), RvE1 (n=9), NPD1 (n=7), or saline/EtOH vehicle injections (n=6) i.p. from P5-P8. Vaso-obliteration was quantified on retinal whole-mounts following FITC-dextran intracardiac perfusion and fixation as above. […]

[2] = tested on: oxygen-induced vessel loss (retinal vasculature); assay: Oxygen-induced vessel loss (vaso-obliteration) at P8 after 24 hours of 75% oxygen; format: in vivo, mouse; details: 10 ng i.p. P5-P8, 24 hours of 75% oxygen
Method: as §1, with “P17 mice were given a lethal dose of Avertin (Sigma) and their eyes were enucleated and fixed in 4% paraformaldehyde for 2 h at 4° C. Retinas were isolated and stained overnight with fluoresceinated Griffonia Bandereiraea Simplicifolia Isolectin B4 (Alexa Fluor 488-121411 or Alexa Fluor 594-121413, Molecular Probes) in 1 mM CaCl2 in PBS. Following 2 hours of washes, retinas were whole-mounted with glycerol-gelatin (Sigma) onto polylysin-coated slides with the photoreceptor side up and imaged with a confocal microscope.” left out
Quantification of vaso-obliteration and retinal neovascularization. […] Vaso-obliteration and neovascular tuft formation were quantified by comparing the number of pixels in the affected areas with the total number of pixels in the retina. […]
Resolvins and Neuroprotectins. […] Retinas collected at P17 from omega-6 or omega-3 polyunsaturated fatty acid fed dams and exposed to high oxygen or room air conditions were analyzed to determine lipid mediator profiles. Polyunsaturated fatty acid derived products were extracted, identified, and quantified using a deuterium-labeled internal standard and MS-MS based mediator informatics^23. […] Following retinal staining and whole-mounting, neovascularization and vaso-obliteration were quantified at P17. Vaso-obliteration was also assessed at P8 (after 24 hours of 75% oxygen exposure) in pups given 10 ng of RvD1 (n=7), RvE1 (n=9), NPD1 (n=7), or saline/EtOH vehicle injections (n=6) i.p. from P5-P8. […]

[3] = tested on: oxygen-induced retinopathy (retinal vasculature); assay: O2-induced retinopathy: vaso-obliteration and neovascularization at P17; format: in vivo, mouse
[4] = i.p. injection, 500 μg/mouse at P7, P12, P14, P16, omega-6 PUFA fed mice
[5] = intraocular (intravitreous) injection 12.5 μg on P12, omega-6 PUFA fed mice

Compound | TNF-α mRNA expression levels in inflammatory models (TNF-α) | decrease in neovascularization (Tufts) compared to vehicle [1] [%] | decrease in vessel loss (VO) compared to vehicle control [1] [%] | neovascularization at P17 compared to saline controls [1] | protection from vaso-obliteration compared to saline-injected controls [1] | oxygen-induced vessel loss (VO) at P8 compared to saline-injected control [2] | pathologic neovascularization compared to saline injected controls [3, 4] | vaso-obliteration (vessel loss) compared to saline injected controls [3, 4] | retinal neovascularization compared to fellow saline-injected eye [3, 5] | vaso-obliteration compared to fellow saline-injected eye [3, 5]
CC/C=C\C[C@H](O)\C=C/C=C/C=C/[C@H](O)C/C=C\C/C=C\CCC(=O)O [NPD1, 10R,17S dihydroxy-docosa-4Z,7Z,11E,13E,15Z,19z-hexaneoic acid] | significantly reduce TNF-α mRNA expression levels | 30 | 40 | less neovascularization | significant protection from vaso-obliteration | No apparent differences in vessel loss; also recorded: no protective action | – | – | – | –
CC/C=C\C[C@H](O)/C=C/C=C\C=C\C=C\[C@@H](O)[C@@H](O)C/C=C\CCC(=O)O [RvD1, 7S,8R,17S-trihydroxy-docosa-4Z,9E,11E,13Z,15E,19Z-hexaenoic acid] | significantly reduce TNF-α mRNA expression levels | 30 | 40 | less neovascularization | significant protection from vaso-obliteration | No apparent differences in vessel loss | – | – | – | –
CC[C@@H](O)/C=C/C=C\C[C@@H](O)/C=C/C=C/C=C\[C@@H](O)CCCC(=O)O [RvE1, 5S,12R,18R-trihydroxy-6Z,8E,10E,14Z,16E-eicosapentaenoic acid] | significantly reduce TNF-α mRNA expression levels | 30 | 40 | less neovascularization | significant protection from vaso-obliteration | No apparent differences in vessel loss; also recorded: no protective action | – | – | – | –
etanercept | – | – | – | – | – | – | significantly protected; also recorded: significant reduction in pathologic neovascularization | significantly protected; also recorded: significant reduction in vaso-obliteration | suppressed retinal neovascularization; also recorded: significantly improved neovascularization | significantly reduce vaso-obliteration
